Patent US8658665B2, “3,6-disubstituted xanthylium salts and use thereof in treatment of tauopathies” (WisTa Laboratories Ltd., priority 2008, dated 2014)
Structures can show the parent of a compound that is named as a salt.

Columns and labels:
[1] = biological target: T1, tau-tau binding: truncated tau (residues 297-390; dGA) on solid phase, full-length tau (T40) in aqueous phase (Homo sapiens, UniProt P10636); test: In vitro assay for establishing B50 (tau-tau binding); conditions: concentration required to inhibit tau-tau binding by 50%; mean ± SE, number of replications in parentheses; NE = no effect when tested to 500 μM
T1 construct: truncated tau (residues 297-390; dGA); full-length tau (T40) was added in the aqueous phase
Description: Briefly, a fragment of tau corresponding to the core repeat domain, which has been adsorbed to a solid phase substrate, is able to capture soluble full-length tau and bind tau with high affinity. This association confers stability against proteolytic digestion of the aggregated tau molecules.
The aqueous phase binding buffer contained 0.05% Tween-20 and 1% gelatine in phosphate-buffered saline (pH7.4).
The concentration of compound required to inhibit the tau-tau binding by 50% is referred to as the B50 value.

[2] = tested on: fibroblast cells (3T6) expressing full-length tau (T40) and the 12 kD PHF-core tau fragment; test: Cell-based assay for establishing EC50 (inhibition of generation of the 12 kD tau fragment)
Description: In essence, fibroblast cells (3T6) express full-length tau (“T40”) under control of an inducible promotor, and low constitutive levels of the PHF-core tau fragment (12 kD fragment).
This is referred to as the EC50 value.

fibroblast cells (3T6) = conditions: for LD50: cell numbers after 24 hrs exposure, lactate dehydrogenase assay kit, mean ± SE, number of replications in parentheses; for RxI: therapeutic index, RxI=LD50/EC50
Description: Toxicity of the compounds described herein was assessed in the cell based assay used to assess EC50. Toxicity was measured by cell numbers after 24 hrs exposure to the compound using a lactate dehydrogenase assay kit TOX-7 (Sigma Biosciences) according to the manufacturer's instructions after lysis of remaining cells. Alternatively a kit from Promega UK (CytoTox 96) was used, again according to the manufacturer's instructions.
The therapeutic index (RxI) was calculated as follows: RxI=LD50/EC50.

T1 sequence (P10636 614-707): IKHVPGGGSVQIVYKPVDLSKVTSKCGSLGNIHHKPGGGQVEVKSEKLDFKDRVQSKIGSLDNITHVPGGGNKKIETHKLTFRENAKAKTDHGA

Row | SMILES | IC50 [1] [µM] | EC50 [2] [nM] | LD50 (fibroblast cells (3T6)) | RxI (fibroblast cells (3T6))
1 | CCN(CC)c1cc2oc3cc(N(CC)CC)cc4oc5cc(=[N+](CC)CC)cc6oc(c1)c2c(c34)c65 [AL, 2,6,10-tris-diethylamino-4,8,12-trioxatrianguleum hexafluorophosphate] | 8.5 ± 0.9 | 130 ± 70 | 8 ± 4 (6) μM | 62
2 | CCN(CC)c1ccc2nc3ccc(N(C)C)cc3nc2c1.Cl [AM, 3-Diethylamino-7-dimethylaminophenazinium chloride] | 634 | 1100 ± 240 | 93 ± 19 (6) μM | 85
3 | CC[N+](CC)=c1ccc2nc3ccc(N(C)C)cc3oc-2c1 [AN, 3-Diethylamino-7-dimethylaminooxazinium perchlorate] | > 500 | 540 ± 80 | 167 ± 29 (6) μM | 309
4 | FC(F)(F)C1=c2cc3c4c(c2Oc2c1cc1c5c2CCCN5CCC1)CCC[N+]=4CCC3 [C, 8-(trifluoromethyl)-2,3,5,6,11,12,14,15-octahydro-1H,4H,10H,13H-diquinolizino[9,9a,1-bc;9′,9a′1′-hi]xanthylium perchlorate] | 461 ± 130 | 470 | 5.99 ± 2.6 (4) μM | 13
5 | [Cl-].c1c2c3c(c4[o+]c5c6c7c(cc5cc14)CCCN7CCC6)CCCN3CCC2 [Compound A, 2,3,6,7,12,13,16,17-Octahydro-1H,5H,11H,15H-diquinolizino[1,9-bc:1′,9′-hi]xanthylium chloride] | 33.8 ± 5.2 | 6.1 ± 2.4 | 19 ± 2.7 (22) μM | 3115
6 | CCN(CC)c1ccc(-c2c3ccc(=[N+](CC)CC)cc-3oc3cc(N(CC)CC)ccc23)cc1 [Compound AC] | 129 ± 11.9 | 1430 ± 140 | 14.5 ± 8.4 (8) μM | 34
7 | CCN(CC)c1ccc2c(-c3ccc([N+](=O)[O-])cc3)c3ccc(N(CC)CC)cc3[o+]c2c1.O=[N+]([O-])[O-] [Compound AD, 3,6-Bis-diethylamino-9-(4-nitrophenyl)xanthylium nitrate] | – | 350 ± 100 | 19 ± 9 (5) μM | 54
8 | CC1(C)CCN2CCC(C)(C)c3c4c(cc1c32)C=c1cc2c3c(c1O4)C(C)(C)CC[N+]=3CCC2(C)C [Compound AE, 1,1,7,7,11,11,17,17-Octamethyl-2,3,6,7,12,13,16,17-octahydro-1H,5H,11H,15H-diquinolizino[1,9-bc;1′,9′-hi]xanthylium nitrate] | 324 ± 87.1 | 51 ± 12 | 21 ± 8 (7) μM | 412
9 | O=[N+]([O-])[O-].c1cc2cc3ccc(N4CCOCC4)cc3[o+]c2cc1N1CCOCC1 [Compound AF, 3,6-Bis-morpholino-xanthylium nitrate] | 187 ± 28.3 | 22000 ± 4200 | 144 ± 67 (10) μM | 7
10 | O=[N+]([O-])[O-].c1cc2cc3ccc(N4CCCCC4)cc3[o+]c2cc1N1CCCCC1 [Compound AG, 3,6-Bis-piperidino-xanthylium nitrate] | 257 ± 50.3 | 1120 ± 750 | 13.8 ± 6.2 (8) μM | 12
11 | O=[N+]([O-])[O-].c1cc2cc3ccc(N4CCCC4)cc3[o+]c2cc1N1CCCC1 [Compound AH, 3,6-Bis-pyrrolidino-xanthylium nitrate] | 129 ± 15.5 | 260 ± 73 | 121 ± 52 (12) μM | 465
12 | Cl.Cl.c1cc2c(cc1N1CCOCC1)Oc1cc(N3CCOCC3)ccc1C2 [Compound AI, 3,6-Bis-morpholino xanthene dihydrochloride] | > 500 | 16000 ± 11000 | 280 ± 121 (10) μM | 17
13 | Cl.Cl.c1cc2c(cc1N1CCCC1)Oc1cc(N3CCCC3)ccc1C2 [Compound AJ, 3,6-Bis-pyrrolidino xanthene dihydrochloride] | > 500 | 370 ± 100 | 125 ± 57 (10) μM | 334
14 | Cl.Cl.c1cc2c(cc1N1CCCCC1)Oc1cc(N3CCCCC3)ccc1C2 [Compound AK, 3,6-Bis-piperidino xanthene dihydrochloride] | 284 ± 101 | 640 ± 270 | 44 ± 26 (8) μM | 69
15 | O=[N+]([O-])[O-].c1c2c3c(c4[o+]c5c6c7c(cc5cc14)CCCN7CCC6)CCCN3CCC2 [Compound B, 2,3,6,7,12,13,16,17-Octahydro-1H,5H,11H,15H-diquinolizino[1,9-bc:1′,9′-hi]xanthylium nitrate] | 254 ± 26.4 | – | 30.8 ± 4.6 (4) μM | 3802
16 | CCN(CC)c1ccc2c(c1)Oc1cc(N(CC)CC)ccc1C2 [Compound H, 3,6-bis-diethylamino xanthene dihydrochloride] | > 500 | 54 ± 10 | 113 ± 18 (11) μM | 2093
17 | CCc1c2ccc(N(CC)CC)cc2[o+]c2cc(N(CC)CC)ccc12.[Cl-] [Compound J, 9-Ethyl-3,6-bis-diethylamino Xanthylium Chloride] | > 500 | 11 ± 6 | 17 ± 3 (10) μM | 1545
18 | Cc1cc(N(C)C)cc2[s+]c3cc(N(C)C)cc(C)c3nc12 [DMMTC, reference compound] | 3.4 ± 0.2 | 40 ± 4 | 2.7 ± 1.2 (6) μM | 67
19 | CCN(CC)c1ccc2cc3ccc(N(CC)CC)cc3[s+]c2c1.[I-] [K, 3,6-Bis(diethylamino)thioxanthylium Iodide] | > 500 | 230 ± 130 | 21.2 ± 12 (3) μM | 91
20 | CN(C)c1ccc2cc3ccc(N(C)C)cc3[s+]c2c1.[Cl-].[Cl-].[Cl-].[Zn+2] [L, 3,6-bis(dimethylamino)thioxanthylium zinc trichloride] | 21.7 ± 2.7 | 300 | 22 ± 8.6 (3) μM | 73
21 | CN(C)c1ccc2nc3ccc(N(C)C)cc3[s+]c2c1 [MTC, reference compound] | – | 590 ± 40 | – | –
22 | CN(C)c1ccc2nc3ccc(=[N+](C)C)cc-3[nH]c2c1 [N, 3,7-Bis(dimethylamino)phenazinium chloride] | 93.1 ± 17 | – | 136 ± 19.3 (4) μM | –
23 | CN(C)c1ccc2nc3ccc(=[N+](C)C)cc-3oc2c1 [O, 3,7-bis(dimethylamino)oxazinium chloride] | 190 ± 33.2 | 3900 ± 3500 | 115 ± 17 (9) μM | 29
